The values below come from patent US20060063711A1, “Use of sglt homolog” (priority 2002, published 2006).

What all share (format): cell-based
In one assay the target is T1, human SGLT2 (hSGLT2) (Homo sapiens, UniProt P31639).
T1 construct: expressed in transfected cells; host or cells: CHO cells
T1 sequence (P31639 1-672): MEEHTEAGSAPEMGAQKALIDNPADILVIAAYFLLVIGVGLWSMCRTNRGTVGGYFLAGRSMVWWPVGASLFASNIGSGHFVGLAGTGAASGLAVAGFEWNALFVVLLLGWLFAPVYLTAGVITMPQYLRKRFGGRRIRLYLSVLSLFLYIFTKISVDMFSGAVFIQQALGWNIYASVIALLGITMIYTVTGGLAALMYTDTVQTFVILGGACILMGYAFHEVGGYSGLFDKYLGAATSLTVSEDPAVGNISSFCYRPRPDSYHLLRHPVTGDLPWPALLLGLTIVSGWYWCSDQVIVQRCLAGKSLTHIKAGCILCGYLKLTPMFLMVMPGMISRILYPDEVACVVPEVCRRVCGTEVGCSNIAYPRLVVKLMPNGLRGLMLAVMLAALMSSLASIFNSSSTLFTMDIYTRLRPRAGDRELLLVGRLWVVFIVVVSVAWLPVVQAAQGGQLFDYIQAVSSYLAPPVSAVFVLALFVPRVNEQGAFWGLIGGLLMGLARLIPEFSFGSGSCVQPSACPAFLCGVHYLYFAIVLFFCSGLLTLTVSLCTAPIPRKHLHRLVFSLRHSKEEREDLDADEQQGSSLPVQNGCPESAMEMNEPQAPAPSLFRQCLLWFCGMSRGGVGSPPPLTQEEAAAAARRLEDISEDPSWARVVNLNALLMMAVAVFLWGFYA
The experiment in a line: α-methyl glucose uptake in CHO cells expressing hSGLT2. The settings on record: control = NMDG without NaCl. The method, then: The cells were plated on 100 μl of DMEM containing 10% FBS charged in a 96-well plate in a cell density of 1×10^5 cells/well, followed by culturing overnight at 37° C. […] The buffer solution was removed and replaced with 90 μl of the same buffer solution or the buffer solution containing NaCl or NaCl+Phlorizin (Sigma) in place of N-Methyl-D-Glucamine (NMDG). After one-hour incubation with 10 μl of 1 mM α-methyl glucose (containing 0.02 μCi of [^14C]-α-Methyl Glucose (Amersham Pharmacia Biotech)) per well, the cells were washed 3 times with 200 μl of chilled PBS buffer. The radioactivity of ^14C taken up into the cells was counted with 100 μl of a liquid scintillator added per well.

Assay [1] concerns the target T2, human SGLT homolog (hSGLTh) (Homo sapiens, UniProt Q2M3M2, I269M).
T2 construct: expressed in transfected cells; host or cells: CHO cells
T2 sequence (Q2M3M2 8-681 I269M limits assumed): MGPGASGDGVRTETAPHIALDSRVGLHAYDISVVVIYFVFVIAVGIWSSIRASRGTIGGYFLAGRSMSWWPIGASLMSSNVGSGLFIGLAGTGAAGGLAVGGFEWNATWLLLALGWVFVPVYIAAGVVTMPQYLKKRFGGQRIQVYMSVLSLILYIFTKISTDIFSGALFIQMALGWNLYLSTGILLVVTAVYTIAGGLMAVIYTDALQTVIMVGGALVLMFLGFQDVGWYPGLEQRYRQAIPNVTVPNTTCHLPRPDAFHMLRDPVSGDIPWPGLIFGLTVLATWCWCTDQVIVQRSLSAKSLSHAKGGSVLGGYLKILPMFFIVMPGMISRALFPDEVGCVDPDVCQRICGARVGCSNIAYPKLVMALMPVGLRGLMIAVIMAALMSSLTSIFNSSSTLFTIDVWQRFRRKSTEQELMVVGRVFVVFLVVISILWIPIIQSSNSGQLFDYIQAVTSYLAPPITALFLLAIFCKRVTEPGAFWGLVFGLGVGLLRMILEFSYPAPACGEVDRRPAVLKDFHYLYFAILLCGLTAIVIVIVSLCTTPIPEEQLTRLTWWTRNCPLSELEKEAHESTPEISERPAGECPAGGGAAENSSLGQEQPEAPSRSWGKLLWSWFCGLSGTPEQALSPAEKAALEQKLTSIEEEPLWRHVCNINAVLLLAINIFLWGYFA
Description: α-methyl glucose uptake in CHO cells expressing hSGLTh. Particulars: for Uptake of α-Methyl Glucose (% based on Control Group): hSGLTh CHO cells, control = NMDG without NaCl. How it is done:
(§1) In accordance with the procedures described in Example 4 of WO 02/53738, the CHO cell lines expressing the human SGLT homolog (hSGLTh), mouse SGLT homolog (mSGLTh), rat SGLT homolog (rSGLTh), human SGLT1 (hSGLT1) and human SGLT2 (hSGLT2) were prepared, respectively, and used for experiments. The experimental uptake of α-methyl glucose, which is a glucose analog selectively taken up into the cells by SGLT, was carried out according to the method described in Am. J. Physiol., 270: G833-G843, 1996 and J. Clin. Invest., 93: 397-404, 1994. The cells were plated on 100 μl of DMEM containing 10% FBS charged in a 96-well plate in a cell density of 1×10^5 cells/well, followed by culturing overnight at 37° C. The cells were washed 3 times with 150 μl of a buffer solution (125 mM N-Methyl-D-Glucamine, 1.2 mM KH2PO4, 2.5 mM CaCl2, 1.2 mM MgSO4, 4 mM Glutamine, 10 mM HEPES (pH 7.2), 0.1 mg/ml BSA) and cultured for an hour in the same buffer solution to remove the remaining glucose. The buffer solution was removed and replaced with 90 μl of the same buffer solution or the buffer solution containing NaCl or NaCl+Phlorizin (Sigma) in place of N-Methyl-D-Glucamine (NMDG). After one-hour incubation with 10 μl of 1 mM α-methyl glucose (containing 0.02 μCi of [^14C]-α-Methyl Glucose (Amersham Pharmacia Biotech)) per well, the cells were washed 3 times with 200 μl of chilled PBS buffer. The radioactivity of ^14C taken up into the cells was counted with 100 μl of a liquid scintillator added per well.

The test system of assay [2] is rat SGLT homolog (rSGLTh). The experiment in a line: α-methyl glucose uptake in CHO cells expressing rSGLTh. The settings on record: control = NMDG without NaCl. The method, then:
as §1, with “After one-hour incubation with 10 μl of 1 mM α-methyl glucose (containing 0.02 μCi of [^14C]-α-Methyl Glucose (Amersham Pharmacia Biotech)) per well, the cells were washed 3 times with 200 μl of chilled PBS buffer.” left out

On to `O=C(CCc1ccc(O)cc1)c1c(O)cc(O)cc1O[C@@H]1O[C@H](CO)[C@@H](O)[C@H](O)[C@H]1O` [phlorizin], for which the “Uptake of α-Methyl Glucose (% based on Control Group)” value came to 139 ± 23% at human SGLT2 (hSGLT2) (NaCl + 3 μM phlorizin); 48 ± 8% on human SGLT2 (hSGLT2) (NaCl + 100 μM phlorizin); 570 ± 142% in assay [1] (NaCl + 3 μM phlorizin); 124 ± 19% in assay [1] (NaCl + 100 μM phlorizin); 643 ± 76% in assay [2] (NaCl + 15 μM phlorizin); 118 ± 6% in assay [2] (NaCl + 500 μM). The resistance to phlorizin entry in assay [1] (human SGLT homolog compared with SGLT1 and SGLT2) is “more potent than in SGLT1 and SGLT2”.
